Experimental data as given in patent US7018839B2 (priority 1996, dated 2006).
No end group written: not given here.

What was measured:
[1] = test system: neurons in the substantia nigra
[2] = test system: hippocampal cells in organotypic cultures; test: Organotypic hippocampal tissue culture toxicity (trypan blue, LDH, AChE immunocytochemistry); type: cell-based, rats; settings: for cellular damage in hippocampal sections compared to control samples: semi-acute application for 1 hour, AChE-peptide and/or NMDA
Experimental: The organotype tissue culture technique requires postnatal (day 5–7) rats given terminal anaesthesia followed by decapitation. Sections of hippocampus, 400 μm thick, are prepared and then plated on a plasma/thrombin clot. A serum-based media is added to these cultures, which can then be maintained at constant temperature (35° C.) for up to 21 days. After each study, cultures are stained with trypan blue to assess cell viability, in addition, after every removal of serum media, cultures are assayed for lactate dehydrogenase (LDH—a soluble cytoplasmic enzyme used as an index of cellular damage).
Following chronic studies (cultures are maintained for 21 days and treated with AChE-peptide and/or NMDA every 3–4 days), cultured cells are immunocytochemically stained for acetylcholinesterase in order to assess what action, if any, the AChE-peptide has on cell number.

anti-peptide antibody = test: Competition assay for binding of antibody to immobilised AChE-peptide; design: species or system Rabbits; settings: competitor preincubated with antibody in solution; APP and BuChE peptide at even excessive doses
Experimental: In order to be sure that the antibody recognition of peptides occurs without the possible distortion due to the binding of the peptide to a charged plastic surface, an assay was used in which the critical interaction is studied in solution. […] An aliquot of the antibody was preincubated with potential competitors for binding to the AChE-peptide before presenting the resulting mixture to the peptide bound to the well.

substantia nigra = test: Behavioural studies: infusion into one substantia nigra, amphetamine challenge, circling; type: in vivo, rats; settings: infused unilaterally into the substantia nigra
Experimental: In these experiments, rats were chronically implanted with a cannula in one substantia nigra and left to recover. After a period of about 3 days, they were infused with either a saline control solution, or a solution containing the 14-mer AChE peptide of the invention at a dose of 1 μl of 10^−5M. After a single infusion, they were challenged daily with a systemic application of amphetamine for the subsequent 10 days.

Molecule: AEFHRWSSYMVHWK [AChE peptide]
- state of the cell on application of NMDA after peptide treatment [1]: severe metabolic stress of the cell
- LDH assays (biochemical studies) ([2]; chronic cultures, 21 days, treated every 3–4 days): support the proposed toxic action
- toxicity detected histochemically ([2]; culture period of three weeks): Toxic effects are also detectable
- interaction with excito-toxic effects of NMDA ([2]; organotypic cultures): synergistic
- time of application until effect can be seen ([2]; organotypic cultures): one
- toxic effects on hippocampal cells ([2]; organotypic cultures): direct toxic effects
- cellular damage in hippocampal sections compared to control samples [2]: extensive cellular damage

Molecule: AGFHRWNNYMMDWK [BuChE peptide]
- calcium channel opening activity [1]: inactive
- effect of the fragment alone on calcium potentials [1]: without corresponding effect
- effect on the activity of the AChE fragment [1]: inactive
- competition for the binding of antibody to immobilised AChE-peptide (anti-peptide antibody): could not compete

Molecule: recombinant AChE
- competition for the binding of antibody to immobilised AChE-peptide (anti-peptide antibody): effective competitor

Molecule: CN[C@H](CC(=O)O)C(=O)O [NMDA, N-methyl-D-aspartate, reference compound]
- cellular damage in hippocampal sections compared to control samples [2]: extensive cellular damage

Molecule: acetylcholinesterase [AChE]
- circling behaviour (activity of the nigrostriatal pathway) (substantia nigra): long-term increase in circling behaviour
